Assay results published in ChEMBL document CHEMBL3045220, “Design, characterization, computational studies, and pharmacological evaluation of substituted-N-[(1E) substituted-phenylmethylidene]benzohydrazide analogs” (Med Chem Res, 2013).
In brackets after ≈: the same amount, converted by molar mass.

What was measured:
Staphylococcus aureus = assay: Antibacterial activity against Staphylococcus aureus by agar well diffusion method; type: functional; conditions: for MIC: Staphylococcus aureus
Escherichia coli = assay: Antibacterial activity against Escherichia coli by agar well diffusion method; type: functional; conditions: for MIC: Escherichia coli
[1] = system: Staphylococcus epidermidis; assay: Antibacterial activity against Staphylococcus epidermidis by agar well diffusion method; type: functional; conditions: for MIC: Staphylococcus epidermidis
Pseudomonas aeruginosa = assay: Antibacterial activity against Pseudomonas aeruginosa by agar well diffusion method; type: functional; conditions: for MIC: Pseudomonas aeruginosa
Aspergillus niger = assay: Antifungal activity against Aspergillus niger by agar well diffusion method; type: functional; conditions: for MIC: Aspergillus niger
Candida albicans = assay: Antifungal activity against Candida albicans by agar well diffusion method; type: functional; conditions: for MIC: Candida albicans
[2] = Antioxidant activity assessed as Mo(6) reduction activity after 60 min by UV-Vis spectrophotometric analysis; type: functional
[3] = Antioxidant activity assessed as H2O2 scavenging activity after 10 min by UV-Vis spectrophotometric analysis; type: functional
[4] = Anti-inflammatory activity assessed as inhibition of albumin denaturation incubated for 15 min at 27 degC followed by incubation at 60 degC for 10 min by UV-Vis spectrophotometric analysis

| Structure (SMILES) | MIC (Staphylococcus aureus) [µg/mL] | MIC (Escherichia coli) [µg/mL] | MIC [1] [µg/mL] | MIC (Pseudomonas aeruginosa) [µg/mL] | -logMIC (Staphylococcus aureus) | MIC (Aspergillus niger) [µg/mL] | -logMIC (Escherichia coli) | -logMIC (Candida albicans) | MIC (Candida albicans) [µg/mL] | IC50 [2] [µg/mL] | IC50 [3] [µg/mL] | -logMIC [1] | IC50 [4] [µg/mL] | -logMIC (Pseudomonas aeruginosa) | -logMIC (Aspergillus niger) |
| --- | --- | --- | --- | --- | --- | --- | --- | --- | --- | --- | --- | --- | --- | --- | --- |
| C=CC1=C(C(=O)O)N2C(=O)[C@@H](NC(=O)/C(=N\OCC(=O)O)c3csc(N)n3)[C@H]2SC1 [CEFIXIME] | 50 (≈ 110 µM) | 50 (≈ 110 µM) | 400 (≈ 882 µM) | 400 (≈ 882 µM) |  |  |  |  |  |  |  |  |  |  |  |
| CC1(C)S[C@@H]2[C@H](NC(=O)[C@H](N)c3ccc(O)cc3)C(=O)N2[C@H]1C(=O)O [AMOXICILLIN] | 12.5 (≈ 34.2 µM) | 12.5 (≈ 34.2 µM) | 100 (≈ 274 µM) | 200 (≈ 547 µM) |  |  |  |  |  |  |  |  |  |  |  |
| Cc1ccc(/C=N/NC(=O)c2ccc(Cl)cc2)cc1 | 30 (≈ 110 µM) | 184 (≈ 675 µM) | 200 (≈ 733 µM) | 6.5 (≈ 23.8 µM) | 1.477 | 10 (≈ 36.7 µM) | 2.264 | 1.301 | 20 (≈ 73.3 µM) | 42 (≈ 154 µM) | 4.3 (≈ 15.8 µM) | 2.3 | 86 (≈ 315 µM) | 0.81 |  |
| O=C(O)Cc1ccccc1Nc1c(Cl)cccc1Cl [DICLOFENAC] |  |  |  |  |  |  |  |  |  |  |  |  | 71 (≈ 240 µM) |  |  |
| COc1cc(/C=N/NC(=O)c2ccccc2C(=O)c2ccccc2)ccc1O | 34 (≈ 90.8 µM) | 50 (≈ 134 µM) | 200 (≈ 534 µM) | 50 (≈ 134 µM) | 1.531 | 25 (≈ 66.8 µM) | 1.698 | 1.301 | 20 (≈ 53.4 µM) | 70 (≈ 187 µM) | 79 (≈ 211 µM) | 2.3 | 10 (≈ 26.7 µM) | 1.69 | 1.4 |
| O=C(N/N=C/c1ccccc1[N+](=O)[O-])c1ccccc1C(=O)c1ccccc1 | 18 (≈ 48.2 µM) | 20 (≈ 53.6 µM) | 30 (≈ 80.3 µM) | 25 (≈ 67 µM) | 1.255 |  | 1.301 | 1.397 | 25 (≈ 67 µM) | 42 (≈ 112 µM) | 101 (≈ 271 µM) | 1.47 | 75 (≈ 201 µM) | 1.4 |  |
| O=C(N/N=C/c1c(O)ccc2ccccc12)c1ccc(Cl)cc1 | 30 (≈ 92.4 µM) | 84 (≈ 259 µM) | 100 (≈ 308 µM) | 25 (≈ 77 µM) | 1.477 | 100 (≈ 308 µM) | 1.924 | 1.531 | 34 (≈ 105 µM) | 120 (≈ 369 µM) | 69 (≈ 212 µM) | 2 | 80 (≈ 246 µM) | 1.4 | 2 |
| O=C(N/N=C/c1cccc([N+](=O)[O-])c1)c1ccc(Cl)cc1 | 20 (≈ 65.9 µM) | 20 (≈ 65.9 µM) | 50 (≈ 165 µM) | 25 (≈ 82.3 µM) | 1.301 | 10 (≈ 32.9 µM) | 1.301 | 1.531 | 34 (≈ 112 µM) | 30 (≈ 98.8 µM) | 22 (≈ 72.4 µM) | 1.69 | 124 (≈ 408 µM) | 1.4 |  |
| COc1cc(/C=N/NC(=O)c2ccc(Cl)cc2)ccc1O | 18 (≈ 59.1 µM) | 34 (≈ 112 µM) | 100 (≈ 328 µM) | 25 (≈ 82 µM) | 1.255 | 50 (≈ 164 µM) | 1.531 | 1.924 | 84 (≈ 276 µM) | 32 (≈ 105 µM) | 0.5 (≈ 1.64 µM) | 2 | 160 (≈ 525 µM) | 1.4 | 1.69 |
| O=C(N/N=C/c1ccc(O)cc1)c1ccccc1C(=O)c1ccccc1 | 34 (≈ 98.7 µM) | 80 (≈ 232 µM) | 84 (≈ 244 µM) | 25 (≈ 72.6 µM) | 1.531 | 84 (≈ 244 µM) | 1.903 | 2 | 100 (≈ 290 µM) | 100 (≈ 290 µM) | 91 (≈ 264 µM) | 1.92 | 20 (≈ 58.1 µM) | 1.4 | 1.92 |
| O=C(N/N=C/c1ccc([N+](=O)[O-])cc1)c1ccccc1C(=O)c1ccccc1 | 34 (≈ 91.1 µM) | 25 (≈ 67 µM) | 30 (≈ 80.3 µM) | 20 (≈ 53.6 µM) | 1.531 | 25 (≈ 67 µM) | 1.397 | 1.924 | 84 (≈ 225 µM) | 18 (≈ 48.2 µM) | 125 (≈ 335 µM) | 1.47 | 17 (≈ 45.5 µM) | 1.3 | 1.4 |
| Cc1ccc(/C=N/NC(=O)c2ccccc2C(=O)c2ccccc2)cc1 | 34 (≈ 99.3 µM) | 168 (≈ 491 µM) | 200 (≈ 584 µM) | 25 (≈ 73 µM) | 1.531 |  | 2.225 | 1.698 | 50 (≈ 146 µM) | 5 (≈ 14.6 µM) | 84 (≈ 245 µM) | 2.3 | 12 (≈ 35 µM) | 1.4 |  |
| O=C(N/N=C/c1ccc(Cl)cc1)c1ccccc1C(=O)c1ccccc1 | 34 (≈ 93.7 µM) | 84 (≈ 232 µM) | 50 (≈ 138 µM) | 12.5 (≈ 34.5 µM) | 1.531 | 20 (≈ 55.1 µM) | 1.924 | 2.301 | 200 (≈ 551 µM) | 20 (≈ 55.1 µM) | 109 (≈ 300 µM) | 1.69 | 54 (≈ 149 µM) | 1.09 | 1.3 |
| O=C(N/N=C/c1ccc([N+](=O)[O-])cc1)c1ccc(Cl)cc1 | 20 (≈ 65.9 µM) | 34 (≈ 112 µM) | 100 (≈ 329 µM) | 20 (≈ 65.9 µM) | 1.301 |  | 1.531 | 1.301 | 20 (≈ 65.9 µM) | 45 (≈ 148 µM) | 1.8 (≈ 5.93 µM) |  | 85 (≈ 280 µM) | 1.3 |  |
| O=C(N/N=C/c1ccccc1O)c1ccccc1C(=O)c1ccccc1 | 20 (≈ 58.1 µM) | 34 (≈ 98.7 µM) | 34 (≈ 98.7 µM) | 12.5 (≈ 36.3 µM) | 1.301 | 34 (≈ 98.7 µM) | 1.531 | 2 | 100 (≈ 290 µM) | 15 (≈ 43.6 µM) | 132 (≈ 383 µM) | 1.53 | 35 (≈ 102 µM) | 1.09 | 1.53 |
| OC(Cn1cncn1)(Cn1cncn1)c1ccc(F)cc1F [FLUCONAZOLE] |  |  |  |  |  | 400 (≈ 1310 µM) |  |  | 12.5 (≈ 40.8 µM) |  |  |  |  |  |  |
| O=C(N/N=C/c1ccccc1O)c1ccc(Cl)cc1 | 18 (≈ 65.5 µM) | 20 (≈ 72.8 µM) | 34 (≈ 124 µM) | 12.5 (≈ 45.5 µM) | 1.255 | 10 (≈ 36.4 µM) | 1.301 | 1.74 | 55 (≈ 200 µM) | 50 (≈ 182 µM) | 34 (≈ 124 µM) | 1.53 | 95 (≈ 346 µM) | 1.09 | 1 |
| O=C(N/N=C/c1ccccc1)c1ccccc1C(=O)c1ccccc1 | 30 (≈ 91.4 µM) | 84 (≈ 256 µM) | 50 (≈ 152 µM) | 6.5 (≈ 19.8 µM) | 1.477 |  | 1.924 | 2 | 100 (≈ 305 µM) | 49 (≈ 149 µM) | 152 (≈ 463 µM) | 1.69 | 105 (≈ 320 µM) | 0.81 |  |
